# How the values were obtained:
# PSD-95 = experiment: Brain PSD-95 by Western Blot after i.v. bryostatin dosing regimens; assay type: in vivo, mice; conditions: for PSD-95 (% of Control): mouse brain, 1 h after last dose
# Protocol: The dose of bryostatin administered is reflected by the number above each bar, while the number within each bar indicates the number of consecutive weeks mice receive a single weekly dose of bryostatin. Control mice were injected with vehicle. PSD-95 was measured in mouse brain by Western Blot 1 h after the last dose. (Mean±SEM, n=3 except Cage 23 n=2, 2-tailed t-test).
# (§1) Mouse studies were performed using bryostatin-i in accordance with the protocol described below. The following metrics were used to evaluate dosing regimens: induction of brain postsynaptic anchoring protein PSD-95, upregulation of BDNF levels in brain, minimal downregulation of PKC-ε levels, and elevation of brain and plasma concentrations of bryostatin. Groups of 2-3 mice were formed and housed in an approved research animal facility. Water was give ad libitum. A first study involved three groups of mice with animals in each group dosed weekly for 1, 2, 3, or 6 consecutive weeks. Each group had its own control group containing the same number of mice. In this study, mice in the first, second and third groups received an intravenous (i.v.) injection of 10 μg/m^2, 15 μg/m^2, and 25 μg/m^2 dose of bryostatin respectively. For each dose, mice in that group received a single injection of bryostatin weekly for predetermined number of consecutive weeks. Following dosing, mice were sacrificed and the blood and brain of each animal was collected for further analysis.
# Cells were harvested in homogenizing buffer containing 10 mM Tris-Cl (pH 7.4), 1 mM PMSF (phenylmethylsulfonyl fluoride), 1 mM EGTA, 1 mM EDTA. 50 mM NaF, and 20 μM leupeptin and were lysed by sonication. The homogenate was centrifuged at 100,000×g for 15 min at 4° C. to obtain the cytosolic fraction (supernatant) and membrane (pellet). The pellet was resuspended in the homogenizing buffer by sonication. Protein concentration was measured using the Coomassie Plus (Bradford) Protein Assay kit (Pierce, USA). Following quantification, 20 μg of protein from each sample was subjected to SDS-PAGE analysis in 4-20% gradient Tris-Glycine gel (Invitrogen, USA). The separated protein was then transferred to nitrocellulose membrane. The membrane was blocked with BSA at room temperature for 15 min and was incubated with primary antibody over night at 4° C. After the incubation, it was washed three times with TBS-T (Tris Buffered saline-Tween 20) and further incubated with alkaline phosphatase conjugated secondary antibody (Jackson Immunoresearch Laboratories. USA) at 1:10,000 dilution for 45 min. The membrane was finally washed three times with TBS-T and developed using the 1-step NBT-BCIP substrate (Pierce, USA). Western Blot was imaged in the Image Quant RT-ECL (GE Life Sciences, Piscataway, N.J.) and densitometric quantification was performed using the IMAL software (Blanchette Rockefeller Neurosciences institute, Morgantown, W. Va.). For translocation assays, PKC activation was represented as the percentage of total protein in the membrane (membrane/cytosol+membrane).
# (§2) C57B/6 male mice weighing between 19-21 grams were obtained from Charles River and housed in cages, 1 mouse/cage in a vivarium at the Blanchette Rockefeller Neurosciences institute. Animals were allowed access to water ad libitum.
# (§3) In these studies, bryostatin was administered intravenously (i.v.) by injection into the tail vein of a mouse. Stock solutions of bryostatin were prepared in dimethyl sulfoxide (DMSO). Prior to administration to a mouse, the stock DMSO solution of bryostatin was diluted to a predetermined concentration by dilution with phosphate buffered saline/saline (PBS/saline).
# Three different dosing regimens (injection schedules) were compared. The dosing regimens tested were weekly dosing, dosing every other week (alternating weeks), and spaced or intermittent dosing. […]
# BDNF = experiment: Brain BDNF by ELISA after i.v. bryostatin dosing regimens; assay type: in vivo, mice; conditions: for BDNF (% of Control): mouse brain, 24 h after last dose
# Protocol: FIG. 2 illustrates the increase in brain BDNF content in mice at 24 hours post intravenous administration of bryostatin. The dose of bryostatin administered is reflected by the number above each bar, while the number within each bar indicates the number of consecutive weeks mice receive a single weekly dose of bryostatin. Control mice were injected with vehicle. BDNF content for each test group was calculated as percent of the corresponding control. BDNF was measured in mouse brain by ELISA 24 h after the last dose. (Mean±SEM, n=3 except Cage 24 n=2, 2-tailed t-test).
# as §1, §2, §3
# Three different dosing regimens (injection schedules) were compared. The dosing regimens tested were weekly dosing, dosing every other week (alternating weeks), and spaced or intermittent dosing.
# The brain, whole blood, and plasma of mice in each dosing group as well as control mice was collected at 1 hour, 24 hours and 7 days after the last injection of bryostatin. PBMC's were isolated from blood and the brain, blood, plasma and PBMC's were frozen immediately using dry ice. Prior to analysis PBMC's were counted by diluting the sample (10 μl aliquot), 10-fold and the PBMC's counted using a Millipore Scepter cell counter. Every group of test animals had its own control group (N=3). Mice in the control group were injected with vehicle at a frequency similar to the dosing regimen and these animals were sacrificed and tested in parallel with mice in the test group.
# Each measurement was performed four times (X4). BDNF levels were measured using ELISA and the concentration of protein PSD-95 was measured by Western Blot. High performance liquid chromatography-mass spectral analysis was used to measure the concentration of bryostatin in blood and brain samples based on a standard curve. Total protein concentrations were measured Coomassie Plus (Bradford) Protein Assay kit.
# In this study, mice were administered 10 μg/m^2, 15 μg/m^2, and 25 μg/m^2 dose of bryostatin as a single injection once per week for the indicated number of consecutive weeks. […]
smiles,measurement,setting,value
CCC/C=C/C=C/C(=O)O[C@H]1/C(=C/C(=O)OC)C[C@H]2C[C@H]([C@@H](C)O)OC(=O)C[C@H](O)C[C@@H]3C[C@H](OC(C)=O)C(C)(C)[C@](O)(C[C@@H]4C/C(=C/C(=O)OC)C[C@H](/C=C/C(C)(C)[C@]1(O)O2)O4)O3 [Bryostatin-1],amounts of PSD-95,"PSD-95; mice, 25 μg/m^2 i.v. once per week, three weeks",higher amounts
same,PSD-95 (% of Control),"PSD-95; cage 7: 10 μg/m^2 i.v. once weekly, 6 weeks",108.176 % of Control
same,PSD-95 (% of Control),"PSD-95; cage 17: 15 μg/m^2 i.v. once weekly, 3 weeks",126.969 % of Control
same,PSD-95 (% of Control),"PSD-95; cage 21: 25 μg/m^2 i.v., 1 week",99.453 % of Control
same,PSD-95 (% of Control),"PSD-95; cage 23: 25 μg/m^2 i.v. once weekly, 2 weeks",107.570 % of Control
same,PSD-95 (% of Control),"PSD-95; cage 25: 25 μg/m^2 i.v. once weekly, 3 weeks",171.203 % of Control
same,brain BDNF levels,"BDNF; mice, 10 μg/m^2 i.v., 3 or 6 consecutive weeks",did not result in elevated levels of brain BDNF
same,brain BDNF levels,"BDNF; mice, 15 μg/m^2, three consecutive weeks",some increase
same,brain BDNF levels,"BDNF; mice, 25 μg/m^2",maximum increase
same,brain BDNF,"BDNF; mice, 25 μg/m^2, 3 weekly doses, 3 weeks no dosing, 3 more weekly doses",remained elevated
same,BDNF (% of Control),"BDNF; cage 4: 25 μg/m^2 i.v. once weekly, 3 weeks",192.869 % of Control
same,BDNF (% of Control),"BDNF; cage 5: 25 μg/m^2 i.v., 3 on/3 off/3 on (9 weeks)",149.023 % of Control
same,BDNF (% of Control),"BDNF; cage 6: 10 μg/m^2 i.v. once weekly, 3 weeks",107.047 % of Control
same,BDNF (% of Control),"BDNF; cage 8: 10 μg/m^2 i.v. once weekly, 6 weeks",99.137 % of Control
same,BDNF (% of Control),"BDNF; cage 18: 15 μg/m^2 i.v. once weekly, 3 weeks",110.969 % of Control
same,BDNF (% of Control),BDNF; cage 22 (regimen not listed in Tables 2/3),133.142 % of Control
same,BDNF (% of Control),"BDNF; cage 24: 25 μg/m^2 i.v. once weekly, 2 weeks",135.095 % of Control

# From patent publication US11173140B2, “Dosing regimens of PKC activators” (COGNITIVE RESEARCH ENTERPRISES, INC., priority 2015, dated 2021)
